Test results published in publication PMC12432435, “Not only an inhibitor: Trehalose enhances the catalytic action exerted on oxaloacetate by rabbit lactate dehydrogenase” (Protein Science : A Publication of the Protein Society, 2025).

Experiments:
[1] = molecular target: T1, rabbit muscle lactate dehydrogenase (rbLDH, LDH-A) (Oryctolagus cuniculus, UniProt P13491); experiment: stopped-flow tryptophan fluorescence quenching of the rbLDH•β-NADH complex; type: binding
T1 construct: gene LDHA; tetrameric enzyme from rabbit skeletal muscle

[2] = molecular target: T1, rabbit muscle lactate dehydrogenase (rbLDH, LDH-A); experiment: stopped-flow tryptophan fluorescence quenching (FRET), association and dissociation kinetics; type: binding; conditions: read-out: stopped-flow tryptophan fluorescence quenching (FRET), association and dissociat

| Control / k obs [1] [s⁻¹] | kon [2] [M⁻¹ s⁻¹] | Compound |
| --- | --- | --- |
| 642 ± 19 | – | NC(=O)C(=O)O [oxamate] |
| – | 1.17e+08 | NC(=O)C1=CN([C@@H]2O[C@H](COP(=O)(O)OP(=O)(O)OC[C@H]3O[C@@H](n4cnc5c(N)ncnc54)[C@H](O)[C@@H]3O)[C@@H](O)[C@H]2O)C=CC1 [β-NADH] |
